Target: human Factor Xa (Homo sapiens, UniProt P00742)
Experiment: In vitro fluorogenic assay for inhibition of Factor Xa
Type: biochemical
Conditions: Ki = IC50/1.6
Method: In Vitro Assay for Inhibition of Factor Xa
Compounds of the present invention were tested for their Factor Xa inhibitory activity as determined in vitro by their ability to inhibit human Factor Xa in a fluorogenic assay, using Rhodamine 110, bis-CBZ-glycylglycyl-L-arginine amide as the fluorogenic substrate. Compounds were diluted from a 10 mM stock solution in dimethylsulfoxide at appropriate concentrations. Assay was performed at room temperature using buffer consisting of: 50 mM Tris-HCl, 150 mM NaCl, 5 mM CaCl2, pH 7.4 containing human Factor Xa (final concentration of 0.0003 U.ml-1). Compound and enzyme were preincubated for 15 min prior to addition of the substrate (final concentration of 10 μM). The reaction was stopped after 3 hrs with the addition of H-D-Phe-Pro-Arg-Chloromethylketone. An LJL-Analyst fluorimeter was used to monitor fluorescence with 485 nm excitation/535 nm emission. To obtain IC50 values the data were analysed using ActivityBase® and XLfit®.
Calculation of Ki values:
Ki=IC50/(1+[Substrate]/Km)
The Ki value for the above assay can be obtained by dividing the IC50 value by 1.6.

Chain of human Factor Xa (P00742 235-488 limits assumed): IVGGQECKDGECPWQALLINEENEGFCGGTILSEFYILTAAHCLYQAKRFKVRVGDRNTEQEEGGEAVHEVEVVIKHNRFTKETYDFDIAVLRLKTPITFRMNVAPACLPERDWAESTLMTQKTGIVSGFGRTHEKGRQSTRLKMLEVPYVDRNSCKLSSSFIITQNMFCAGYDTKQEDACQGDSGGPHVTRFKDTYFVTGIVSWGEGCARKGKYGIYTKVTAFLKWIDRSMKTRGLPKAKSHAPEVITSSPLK
Chain of human Factor Xa (P00742 41-179 partner limits assumed): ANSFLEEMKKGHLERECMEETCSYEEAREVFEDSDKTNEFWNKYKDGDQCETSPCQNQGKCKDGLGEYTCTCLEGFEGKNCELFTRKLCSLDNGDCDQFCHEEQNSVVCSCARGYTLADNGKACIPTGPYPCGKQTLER

Structure (SMILES) | Ki [nM]
CN(C)C1CCc2cc(N3CCC(NS(=O)(=O)c4cc5ccc(Cl)cc5s4)C3=O)ccc21 (centres unmarked) [Example 3, 6-Chloro-N-{1-[1-(dimethylamino)-2,3-dihydro-1H-inden-5-yl]-2-oxo-3-pyrrolidinyl}-1-benzothiophene-2-sulfonamide] | < 50
CNC1CCc2cc(N3CC[C@H](N(C)S(=O)(=O)c4ccc5cc(Cl)ccc5c4)C3=O)ccc21 (stereo partly drawn) [Example 12, 6-Chloro-N-methyl-N-{(3S)-1-[1-(methylamino)-2,3-dihydro-1H-inden-5-yl]-2-oxo-3-pyrrolidinyl}-2-naphthalenesulfonamide] | < 50

Source: patent publication US20070249705A1, “N-(1-(2,3-Dihydro-1H-Inden-5Yl)-2-Oxo-3-Pyrrolidinyl)-Sulfonamide Derivatives for Use as Factor Xa Inhibitors” (priority 2004, published 2007)
